The nature of data set [1]: Oral bioavailability in C57BL/6 mouse at 30 mg/kg measured upto 24 hrs. Type of data set: ADME, organism-based. The following applies: in vivo.
Data set [2] can be described thus: Clearance in C57BL/6 mouse at 2 mg/kg, iv measured upto 24 hrs. Type of data set: ADME, organism-based. The following applies: in vivo.
Data set [3] in a line: Metabolic stability in mouse liver microsomes assessed as compound remaining at 0.5 uM incubated for10 mins in presence of NADPH by LC-MS/MS analysis. The format is ADME, Microsome. The following applies: read-out: Stability. (In general: Liver microsomes are a subcellular fraction often used to study metabolism.)
Data set [4] can be described thus: Cmax in C57BL/6 mouse at 30 mg/kg, po measured upto 24 hrs. Type of data set: ADME, organism-based. Conditions: in vivo. Further details: route oral, dose 30 mg/kg, time <=24.
Data set [5] in a line: Metabolic stability in human liver microsomes assessed as compound remaining at 0.5 uM incubated for10 mins in presence of NADPH by LC-MS/MS analysis. Conditions: read-out: Stability. Type of data set: ADME, Microsome.
The nature of data set [6]: Volume of distribution at steady state in C57BL/6 mouse at 2 mg/kg, iv measured upto 24 hrs. Conditions: in vivo. The format is ADME, organism-based.
Data set [7] can be described thus: AUC in C57BL/6 mouse at 30 mg/kg, po measured upto 24 hrs. Conditions: in vivo. Type of data set: ADME, organism-based. Further details: route oral, dose 30 mg/kg, time <=24.
Data set [8] can be described thus: Half life in C57BL/6 mouse at 2 mg/kg, iv measured upto 24 hrs. Type of data set: ADME, organism-based. Conditions: in vivo.
Data set [9] can be described thus: Cmax in C57BL/6 mouse at 30 mg/kg, sc measured upto 24 hrs. Also noted: route subcutaneous, dose 30 mg/kg, time <=24. Type of data set: ADME, organism-based. Conditions: in vivo.
Data set [10] is described as follows: Bioavailability in C57BL/6 mouse at 30 mg/kg, sc measured upto 24 hrs. Type of data set: ADME, organism-based. The following applies: in vivo.
Data set [11] is described as follows: AUC in C57BL/6 mouse at 30 mg/kg, sc measured upto 24 hrs. The format is ADME, organism-based. Also noted: route subcutaneous, dose 30 mg/kg, time <=24. The following applies: in vivo.
The nature of data set [12]: Aqueous solubility of the compound at pH 1. The following applies: aqueous solution. Type of data set: physicochemical.
The nature of data set [13]: Aqueous solubility of the compound at pH 7.4. Type of data set: physicochemical. The following applies: aqueous solution.

Experimental findings from ChEMBL document CHEMBL5036315, “Synthesis, Structure-Activity Relationships, and In Vivo Evaluation of Novel Tetrahydropyran-Based Thiodisaccharide Mimics as Galectin-3 Inhibitors” (J Med Chem, 2021) are described below.

SMILES strings stand for the structures. Converted amounts (≈) assume the structure as drawn. A value given as a limit tells only on which side of the number the result lay.

By bioavailability is commonly meant the share of a dose that reaches the circulation, judged against a reference dose that is usually intravenous. A high value points to good availability. Usually clearance stands for the volume of plasma or blood freed of the substance per unit of time. What is called Cmax is the peak of the concentration-time curve. What is called Vss is the apparent volume that relates the amount in the body to the concentration in plasma or blood. Read a high Vss as wide distribution into tissue. In general, AUC refers to the area under the concentration-time curve, a measure of exposure. A higher AUC goes with high exposure. As usually defined, the half-life is the time needed for the level to fall by half in the phase considered. Usually solubility stands for the concentration that dissolves in the medium under given conditions. Lower therefore signals a poorly soluble substance.

`CO[C@@H]1[C@@H](n2cc(-c3cc(F)c(F)c(F)c3)nn2)[C@@H](O)[C@@H](CO)O[C@H]1S[C@@H]1COC[C@H](n2cc(-c3cccc(F)c3)nn2)[C@H]1O`: the bioavailability in [1] came out at 2%. The compound further displayed a clearance in data set [2] of 59 mL/min/kg. Besides, the remaining at 10 min, 0.5 µM in data set [3] is 72%; in data set [5] it was 78%. This compound also yielded a Cmax in data set [4] of 200 nM. For the same compound, the Vss in data set [6] stood at 3.6 L/kg. Moreover, the AUC at 24 h in data set [7] was 0.3 µM·h. Besides, the half-life in data set [8] is 1.9 h.
In the case of `OC[C@H]1O[C@@H](S[C@@H]2O[C@H](CO)[C@H](O)[C@H](n3cc(-c4cccc(F)c4)nn3)[C@H]2O)[C@H](O)[C@@H](n2cc(-c3cccc(F)c3)nn2)[C@H]1O` [OLITIGALTIN], the bioavailability was 1% in data set [1] and 66% in data set [10] (C57BL/6, mouse). In addition, in data set [2], the clearance is 30 mL/min/kg. In addition, the Cmax is 10300 nM in data set [9] and 300 nM in data set [4]. For the same compound, in [6], the Vss is 0.7 L/kg. In addition, the AUC at 24 h in [7] came out at 0.3 µM·h; in [11] (C57BL/6, mouse) it was 17 µM·h. Further, the half-life in [8] is 1.6 h.
In turn, `CO[C@@H]1[C@@H](n2cc(-c3cc(F)c(F)c(F)c3)nn2)[C@@H](O)[C@@H](CO)O[C@H]1S[C@@H]1COC[C@H](n2cc(-c3cccc(O)c3)nn2)[C@H]1O` displayed a bioavailability in [1] of 0.3%. In [2], this compound yielded a clearance of 69 mL/min/kg. Moreover, the remaining at 10 min, 0.5 µM is 92% in data set [3] and 98% in data set [5]. The compound further gave a Cmax in data set [4] of 10 nM. In data set [6], this compound yielded a Vss of 1.6 L/kg. In data set [7], this compound displayed an AUC at 24 h of 0.04 µM·h. Also, the half-life in [8] was 1.2 h.
Consider `COc1cnc(-c2cn([C@H]3COC[C@@H](S[C@@H]4O[C@H](CO)[C@H](O)[C@H](n5cc(-c6cc(F)c(F)c(F)c6)nn5)[C@H]4OC)[C@@H]3O)nn2)nc1`, for which the solubility in [12] and in data set [13] was below 1 µg/mL each time.
In turn, `CO[C@@H]1[C@@H](n2cc(-c3cc(F)c(F)c(F)c3)nn2)[C@@H](O)[C@@H](CO)O[C@H]1S[C@@H]1COC[C@H](n2cc(-c3cncnc3)nn2)[C@H]1O` showed a Cmax in [9] of 5900 nM. The results for the remaining at 10 min, 0.5 µM in data set [3] and in data set [5] were 89% and 45%, respectively. This compound had a volume of distribution (Vss) in [6] of 2.4 L/kg. This compound also came in with a F in data set [10] (mouse, 30 mg/kg, 24 h) of 100%. Besides, the figures for the solubility in [12] and in [13] were 6 µg/mL (≈ 9.42 µM) and 3 µg/mL (≈ 4.71 µM), respectively. The compound further had a half-life in [8] of 1.4 h. In [11] (mouse, 24 h), this compound showed an AUC of 49 µM·h.
`COc1ncc(-c2cn([C@H]3COC[C@@H](S[C@@H]4O[C@H](CO)[C@H](O)[C@H](n5cc(-c6cc(F)c(F)c(F)c6)nn5)[C@H]4OC)[C@@H]3O)nn2)cn1` registered a solubility in data set [12] below 1 µg/mL.
The same measure, in the same setting: the same measure for `CO[C@@H]1[C@@H](n2cc(-c3cc(F)c(F)c(F)c3)nn2)[C@@H](O)[C@@H](CO)O[C@H]1S[C@@H]1COC[C@H](n2cc(-c3nccs3)nn2)[C@H]1O`: below 1 µg/mL.
